From patent publication US4304679A, “Detergent product containing deodorant compositions” (priority 1978, dated 1981)

molecular target: T1, lipoxidase (ECl.13.1.13) (Glycine max, UniProt P08170); assay: Lipoxidase test: inhibition of the oxidation of linoleic acid by lipoxidase; assay type: biochemical; details: test substrate made with 0.5% by weight solution of material in ethanol; pH 9.0 borate buffer; 234 nm
T1 sequence (P08170 1-839): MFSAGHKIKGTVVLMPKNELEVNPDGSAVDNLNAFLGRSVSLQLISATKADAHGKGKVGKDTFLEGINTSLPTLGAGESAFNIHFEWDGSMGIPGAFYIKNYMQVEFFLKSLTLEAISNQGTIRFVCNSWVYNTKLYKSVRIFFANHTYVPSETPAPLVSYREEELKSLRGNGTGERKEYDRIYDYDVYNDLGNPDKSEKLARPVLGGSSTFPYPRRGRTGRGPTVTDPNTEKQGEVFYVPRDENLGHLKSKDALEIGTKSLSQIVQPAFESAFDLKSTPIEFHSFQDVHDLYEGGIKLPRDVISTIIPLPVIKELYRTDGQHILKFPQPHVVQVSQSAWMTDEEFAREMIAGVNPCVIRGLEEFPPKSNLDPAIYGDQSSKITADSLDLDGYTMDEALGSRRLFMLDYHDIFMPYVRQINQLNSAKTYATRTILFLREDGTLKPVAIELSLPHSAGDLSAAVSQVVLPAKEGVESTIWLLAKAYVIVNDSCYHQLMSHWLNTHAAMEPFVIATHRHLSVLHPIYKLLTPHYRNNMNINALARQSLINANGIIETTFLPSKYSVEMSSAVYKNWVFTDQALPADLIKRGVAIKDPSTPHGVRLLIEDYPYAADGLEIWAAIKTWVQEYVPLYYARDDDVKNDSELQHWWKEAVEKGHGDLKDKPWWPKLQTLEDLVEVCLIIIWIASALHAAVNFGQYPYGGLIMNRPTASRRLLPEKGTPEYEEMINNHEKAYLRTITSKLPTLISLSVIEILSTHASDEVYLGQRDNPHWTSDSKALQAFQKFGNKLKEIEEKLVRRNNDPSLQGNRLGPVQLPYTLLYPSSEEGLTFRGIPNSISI

Substance	LIC (lipoxidase inhibiting capacity, % inhibition) [%]
Dimyrcetol	16
Tetrahydromuguol	24
i-Nonyl acetate	50
i-Nonyl formate	19
